Tested on: M. terrae cells
Test: PAA time course, cell suspension testing of M. terrae cell resistance to high-level disinfection
Format: cell-based, Mycobacterium terrae ATCC 15755
Conditions: for Log Population / Log reduction / M. terrae Population: 850 ppm PAA, 30° C., 21 days growth culture
Procedure: Into a 50 ml polypropylene tube, pipet 0.85 ml of RAPICIDE Part A, 0.85 ml of RAPICIDE part B, and mix with 48.3 ml of distilled water. Vortex to mix thoroughly. Place tube in 30° C. water bath to equilibrate for at least 10 minutes before use.
PAA Time course: Exposure to PAA for various contact time points at 30° C. at the minimum effective concentration of RAPICIDE PAA (850 ppm). 10 μl of M. terrae cell samples at a target concentration of at least 1×10^8 cfu/mL were added to a 1.5 mL […] each sample in a 30° C. water bath. At the end of each contact time, samples were neutralized by adding 600 μL of 3% sodium thiosulfate with 0.05% Tween 80 for 15 mins at 30° C. Samples were centrifuged for 10 mins at 14000 rpm at 4 C. The supernatant was decanted off and samples were resuspended in 1 ml of BBL buffer. Serial dilutions (1:10) were made of each sample and 1 mL of each dilution was plated on Middlebrook 7H10 agar with Middlebrook OADC enrichment. Plates were incubated at 37° C. for 14-21 days.
The procedure of Example 1 was repeated using 21-days growth cells, with the M. terrae cells exposed to PAA instead of OPA.

## CC(=O)OO [PAA, peracetic acid]
Exposure 1 seconds
  Log Population: 10.2
  Log reduction: 0.0
  M. terrae Population: 1.53E+10 CFU
Exposure 15 seconds
  Log Population: 9.5
  Log reduction: 0.7
  M. terrae Population: 3.45E+09 CFU
Exposure 30 seconds
  Log Population: 8.1
  Log reduction: 2.1
  M. terrae Population: 1.40E+08 CFU
Exposure 60 seconds
  Log Population: 7.3
  Log reduction: 2.9
  M. terrae Population: 2.00E+07 CFU
Exposure 90 seconds
  Log Population: 0
  Log reduction: 10.2
  M. terrae Population: 1.00E+00 CFU
Exposure 120 seconds
  Log Population: 0
  Log reduction: 10.2
  M. terrae Population: 1.00E+00 CFU
Exposure 150 seconds
  Log Population: 0
  Log reduction: 10.2
  M. terrae Population: 1.00E+00 CFU
Exposure 180 seconds
  Log Population: 0
  Log reduction: 10.2
  M. terrae Population: 1.00E+00 CFU
Exposure 210 seconds
  Log Population: 0
  Log reduction: 10.2
  M. terrae Population: 1.00E+00 CFU
Exposure 240 seconds
  Log Population: 0
  Log reduction: 10.2
  M. terrae Population: 1.00E+00 CFU
Exposure 270 seconds
  Log Population: 0
  Log reduction: 10.2
  M. terrae Population: 1.00E+00 CFU
Exposure 300 seconds
  Log Population: 0
  Log reduction: 10.2
  M. terrae Population: 1.00E+00 CFU
PAA at 30° C., 21-days growth cells
  exposure to PAA for a 6 log reduction in M. terrae cells: about 75 seconds

Reference: patent US11065355B2, “Device for monitoring efficacy of a decontamination process comprising a bacteria cell and method of using” (priority 2017, dated 2021)
